Measurements published in PubChem BioAssay (NCI).
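Following 48 hours of exposure in 96-well plates, responses at five concentrations were used to interpolate endpoints linearly. The concentration for 50% growth inhibition is given as GI50. TGI: total growth inhibition.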

Tests used:
Assay in all cases: NCI anticancer screen, dose series, 48 h
A549 NSCLC = test system: A549 NSCLC
BT-549 breast = test system: BT-549 breast
HCC-2998 colon = test system: HCC-2998 colon
OVCAR-3 ovarian = test system: OVCAR-3 ovarian
SF-268 CNS = test system: SF-268 CNS
SN12C renal = test system: SN12C renal
UACC-62 melanoma = test system: UACC-62 melanoma
MDA-N = test system: MDA-N

| Structure (SMILES) | TGI (A549 NSCLC) | TGI (BT-549 breast) | TGI (HCC-2998 colon) | TGI (OVCAR-3 ovarian) | TGI (SF-268 CNS) | TGI (SN12C renal) | TGI (UACC-62 melanoma) | TGI (MDA-N) | GI50 (A549 NSCLC) | GI50 (BT-549 breast) | GI50 (HCC-2998 colon) | GI50 (OVCAR-3 ovarian) | GI50 (SF-268 CNS) | GI50 (SN12C renal) | GI50 (UACC-62 melanoma) |
| --- | --- | --- | --- | --- | --- | --- | --- | --- | --- | --- | --- | --- | --- | --- | --- |
| N#Cc1c2c(c(Nc3ccc(Cl)cc3)n3c1nc1ccccc13)CCCC2 | > 100 µM | > 100 µM | > 100 µM | > 100 µM | > 100 µM | > 100 µM | > 100 µM |  |  |  |  |  |  |  |  |
| CCCCC(C)(C/C=C/[C@@H]1[C@@H](C(O)CCCCCC(=O)OC)C(=O)C[C@H]1O[Si](C)(C)C(C)(C)C)O[Si](C)(C)C (stereo partly drawn) | > 100 µM | > 100 µM | > 100 µM | > 100 µM | > 100 µM | > 100 µM | > 100 µM |  |  |  |  |  |  |  |  |
| O=C(Nc1nc2ccc([N+](=O)[O-])cc2s1)c1cc([N+](=O)[O-])ccc1Cl |  | 6.83 µM |  | 9.64 µM | 11.7 µM | 4.57 µM |  | 5.04 µM |  |  |  |  |  |  |  |
| Cc1cccc2c1Oc1ncccc1C2NC(=O)CN(C)C (stereo not drawn) | > 10 µM | > 10 µM | > 10 µM | > 10 µM | > 10 µM | > 10 µM | > 10 µM |  |  |  |  |  |  |  |  |
| Cc1cc(N(CCCl)CCCl)ccc1/C=N\NC(=O)c1cccnc1 | > 100 µM | 61.6 µM | 97.6 µM | 79.3 µM | > 100 µM | > 100 µM | 25.2 µM |  | 21 µM | 19.4 µM | 25 µM | 23.1 µM | 25.1 µM | 22.4 µM | 4.51 µM |
| COc1ccc(NC(=S)Nc2cccc(C)n2)cc1 |  | > 100 µM | > 100 µM |  | > 100 µM |  | > 100 µM |  |  |  |  |  |  |  |  |
| O=C(Cn1c(-c2ccccc2)cc2ccccc21)N1CCOCC1 | > 100 µM |  | > 100 µM | > 100 µM | > 100 µM | > 100 µM | > 100 µM | > 100 µM |  |  |  |  |  |  |  |
| O=C1C[C@@]23CCC4(CC2=CCC[C@H]3O1)OCCO4 | > 100 µM |  | > 100 µM | > 100 µM | > 100 µM | > 100 µM | > 100 µM | > 100 µM |  |  |  |  |  |  |  |
| CC(C)[C@H](NC(=O)OCc1ccccc1)C(=O)N[C@H](/C=C/C(=O)OC(C)(C)C)CO | > 100 µM |  | > 100 µM | > 100 µM | > 100 µM | > 100 µM | > 100 µM | > 100 µM |  |  |  |  |  |  |  |
| C/C(=C\CNc1ncnc2c1ncn2CCC#N)CO | > 100 µM |  | > 100 µM | > 100 µM | > 100 µM | > 100 µM | > 100 µM | > 100 µM |  |  |  |  |  |  |  |
| Nc1nc2c(c(-c3ccc(F)cc3)n1)COC/C2=C\c1ccc(F)cc1 |  | > 100 µM | > 100 µM | > 100 µM | > 100 µM | > 100 µM | > 100 µM | > 100 µM |  |  |  |  |  |  |  |
| C[C@@H](c1ccccc1)N(CC#N)[C@H]1CCC[C@]1(O)/C=C/c1ccc2c(c1)OCO2 | > 25 µM |  | > 25 µM |  | > 25 µM | > 25 µM | 7.67 µM | > 25 µM |  |  |  |  |  |  |  |
| COc1ccc(-c2cc(-c3ccc(Nc4ccnc5cc(C(F)(F)F)ccc45)cc3)nc(N)c2C#N)c2ccccc12 | > 100 µM | > 100 µM | > 100 µM | > 100 µM | > 100 µM |  | > 100 µM |  |  |  |  |  |  |  |  |
| COc1cc(CC2C(=O)OCC2Cc2ccc(OC)c(OC)c2)ccc1O (stereo not drawn) | > 100 µM | > 100 µM |  | > 100 µM | > 100 µM | > 100 µM | > 100 µM | > 100 µM |  |  |  |  |  |  |  |
